Source: US20040229947A1, “Method of treating hyperactive bladder using phenoxyacetic acid derivatives” (KISSEI PHARMACEUTICAL CO., LTD., priority 2003, published 2004)

Tests used:
isolated atria = assay: Heart rate of isolated atrial preparations (beta1-AR-stimulated function); parameters: species or system cynomolgus monkey
Method: (§1) The detrusor of the cynomolgus monkey (both sexes) was isolated and dissected. Tracheal, atrial and urethral dissections were also prepared. Then the effect of (−)-2-[4-(2-{[(1S,2R)-2-hydroxy-2-(4-hydroxyphenyl)-1-methylethyl]amino}ethyl)-2,5-dimethylphenoxy] acetic acid on the tone of the detrusor preparation was tested. Carbachol-induced tonic contractions of the tracheal preparations, the heart rate of the atrial preparations and endothelin-1-induced tonic contractions of the urethral preparations were also investigated using the Magnus method.

isolated monkey detrusor = assay: Effects on the tone of the isolated monkey detrusor (Magnus method); conditions: isolated cynomolgus monkey detrusor; for EC50: Primates, read-out: EC50, reduction of the tone of the isolated monkey detrusor
Method: as §1

isolated urethra = assay: Endothelin-1-induced tonic contraction of isolated urethral preparations; parameters: species or system cynomolgus monkey
Method: as §1

isolated trachea = assay: Carbachol-induced tonic contraction of isolated tracheal preparations (beta 2-AR-stimulated function); parameters: species or system cynomolgus monkey; conditions: for effect on carbachol-induced tonic contraction of the isolated trachea: beta 2-AR-stimulated function
Method: as §1

[1] = tested on: PGE2-induced bladder hyperactivity; assay: Prostaglandin (PG) E2-induced rat overactive bladder model, cystometrogram in conscious rats; type: in vivo; conditions: intragastric, 0.1, 1 or 10 mg/kg as free body, 1, 2, 4 hours after administration
Method: Rats were anesthetized with pentobarbital sodium. Each cannula was implanted into the urinary bladder and stomach, tunneled subcutaneously and secured on the back of the neck and closed. Seven days after the cannula implantation, cystometrogram of the freely-moved conscious rats were measured. Saline was continuously instilled into the bladder at a rate of 6 mL/hour, and after the cystometric parameters were stabilized, PGE2 (60 μmol/L)-containing saline was instilled continuously instead of the saline into the bladder. After the stable shortening of the micturition interval was confirmed under the condition, ethyl(−)-2-[4-(2-{[(1S,2R)-2-hydroxy-2-(4-hydroxyphenyl) -1-methylethyl]amino}ethyl)-2,5-dimethylphenoxy] acetate hydrochloride (0 (vehicle), 0.1, 1 or 10 mg/kg as doses of the free body) was administered intragastrically. Cystometric parameters were measured for 4 hours after the administration and were expressed as a percentage to those at the pre-administration (0 hour).

[2] = tested on: spinal cord injury-induced overactive bladder; assay: Spinal cord injury-induced overactive bladder model, cystometrogram; type: in vivo, rat; conditions: intragastric, 10 mg/kg as free body; 1 hour after administration; FIG. 7
Method: In ether anesthetized rats, spinal transactions were performed at the level of Th9-Th10. Each rat was treated with amikacin 10 mg/body, i.m. for 7 days, and micturition management was done 2 times/day for 2 weeks to prevent over-distension of the bladder. About 6 weeks after the spinal cord operation, rats were anesthetized with pentobarbital sodium and each cannula (PE-50: Nihon Becton Dickinson) was implanted into the urinary bladder and stomach, tunneled subcutaneously, secured on the back of the neck and closed. Seven days after the cannula implantation, cystometrogram was performed. Saline was instilled into the urinary bladder at a rate of 12 mL/hour. The saline instillation was stopped every micturition. After the stable spontaneous small bladder contraction in filling phase was confirmed, ethyl (—)-2-[4-(2-{[(1S,2R)-2-hydroxy-2-(4-hydroxyphenyl)-1-methylethyl]amino}ethyl)-2,5-dimethylphenoxy] acetate hydrochloride (0 (vehicle) or 10 mg/kg as dose of free body) was administered intragastrically. The micturition parameter at 1 hour after the administration of ethyl (−)-2-[4-(2-{[(1S,2R)-2-hydroxy-2-(4-hydroxyphenyl)-1-methylethyl]amino}ethyl)-2,5-dimethylphenoxy] acetate hydrochloride was measured and was expressed as a percentage to that at the pre-administration (0 hour).

[3] = tested on: lower urinary tract partially obstructed overactive bladder; assay: Lower urinary tract partially obstructed rat overactive bladder model, cystometrogram; type: in vivo; conditions: intragastric
Method: Rats were anesthetized with pentobarbital sodium. After urethra was ligated with a tube (width: 1 mm) by thread, the tube was removed. Six weeks after the lower urinary tract operation, the implanted thread was removed, and each cannula was implanted into the urinary bladder and stomach, tunneled subcutaneously and secured on the back of the neck and closed. The next day, cystometrogram of freely-moved conscious rats were measured. Saline was instilled into the urinary bladder at a rate of 12 mL/hour. The saline instillation was stopped every micturition. After the stable spontaneous small bladder contraction in filling phase was confirmed, ethyl (−)-2-[4-(2-{[(1S,2R)-2-hydroxy-2-(4-hydroxyphenyl)-1-methylethyl]amino}ethyl)-2,5-dimethylphenoxy] acetate hydrochloride (0 (vehicle), 1 or 10 mg/kg as doses of free body) or tolterodine (10 mg/kg) was administered intragastrically. The micturition parameters at 1 hour after the administration of ethyl (−)-2-[4-(2-{[(1S,2R)-2-hydroxy-2-(4-hydroxyphenyl)-1-methylethyl]amino}ethyl)-2,5-dimethylphenoxy] acetate hydrochloride or tolterodine were measured and were expressed as a percentage to that at the pre-administration (0 hour).

SMILES: Cc1cc(OCC(=O)O)c(C)cc1CCN[C@@H](C)[C@H](O)c1ccc(O)cc1 [(−)-2-[4-(2-{[(1S,2R)-2-hydroxy-2-(4-hydroxyphenyl)-1-methylethyl]amino}ethyl)-2,5-dimethylphenoxy] acetic acid]
- effect on heart rate of the isolated atria (isolated atria; beta1-AR-stimulated function): less effect
- detrusor selectivity compared with the atria (isolated atria; detrusor versus atria): ~80 times
- EC50 (isolated monkey detrusor): 820 nM
- effect on endothelin-1-induced tonic contraction of the isolated urethra (isolated urethra): no effect
- effect on carbachol-induced tonic contraction of the isolated trachea (isolated trachea): less effect
- detrusor selectivity compared with the trachea (isolated trachea; detrusor versus trachea): about 1200 times

SMILES: CCOC(=O)COc1cc(C)c(CCN[C@@H](C)[C@H](O)c2ccc(O)cc2)cc1C.Cl [Compound 1, ethyl (−)-2-[4-(2-{[(1S,2R)-2-hydroxy-2-(4-hydroxyphenyl)-1-methylethyl]amino}ethyl)-2,5-dimethyl-phenoxy] acetate hydrochloride]
- micturition interval ([1]; FIGS. 1 to 3): prolonged the micturition interval
- micturition volume ([1]; FIGS. 4 to 6): increased the micturition volume dose-dependently
- frequency of spontaneous small bladder contraction in filling phase [2]: decreased the frequency
- amplitude of spontaneous small bladder contractions in filling phase ([3]; 1 or 10 mg/kg as free body, 1 hour after administration, FIG. 8): decreased the amplitude
- frequency of spontaneous small bladder contractions in filling phase ([3]; 1 or 10 mg/kg as free body, 1 hour after administration, FIG. 9): decreased
- micturition pressure ([3]; 1 or 10 mg/kg as free body, 1 hour after administration, FIG. 10): did not affect the micturition pressure
- potency on spontaneous small bladder contractions relative to tolterodine ([3]; tolterodine 10 mg/kg, FIGS. 8 and 9): stronger than that of tolterodine

SMILES: CC(C)NCC(O)c1ccc(O)c(O)c1 (centres unmarked) [isoproterenol, reference compound]
- EC50 (isolated monkey detrusor): 190 nM
- effect on carbachol-induced tonic contraction of the isolated trachea (isolated trachea): reduced the carbachol-induced tonic contraction

SMILES: CCN(CC)CC#CCOC(=O)C(O)(c1ccccc1)C1CCCCC1 (centres unmarked) [oxybutynin]
- relaxation of the isolated monkey detrusor (isolated monkey detrusor): No significant relaxation

SMILES: CCCOC(C(=O)OC1CCN(C)CC1)(c1ccccc1)c1ccccc1 [propiverine]
- relaxation of the isolated monkey detrusor (isolated monkey detrusor): No significant relaxation
